Where two headings read alike, the source gives them in different places.
What was measured:
[1] = test system: Zucker fa/fa rats; conditions: for Blood glucose level at each time point (hr) after oral glucose administration / GLP-1 concentration at each time point (hr) after oral glucose administration (% of Pre) / Insulin concentration at each time point (hr) after oral glucose administration: 30 mg/kg p.o. 0.5 hour before glucose load
Procedure: (§1) Animals: Zucker fa/fa Rats, an Animal Model for TypeII Diabetes (Purchased from Charles River Japan, Inc.)
(§2) Each test compound was dissolved in distilled water at the doses shown in the Tables indicated below, and then administered orally at a volume of 5 mL/kg. The vehicle control group was orally administered distilled water at a volume of 5 mL/kg. […] The rats were tested for glucose tolerance on the first day of the administration series. In the test, distilled water and the test compounds were given 0.5 hour before glucose load.
For the glucose tolerance test, an unanesthetized rat was lightly cut at the caudal vein with a razor blade and bled immediately before the administration of a test compound or distilled water, and immediately before, and at 0.5, 1, 2, and 3 hours after glucose load. 250 μL of blood was collected from the rat using a heparinized capillary and transferred into a centrifugation tube. The supernatant obtained by centrifugation (at 10000 g at 4° C. for 2 minutes) was assayed for active GLP-1 level using Active GLP-1 ELISA kit (Linco). At the same time, 10 μL of blood was collected and mixed with 140 μL of a 0.6 M perchloric acid solution. The mixture was centrifuged (at 3000 g at 4° C. for 10 minutes), and the resulting supernatant was assayed for glucose using Glucose Test Wako II (Wako Pure Chemical Industries, Inc.). The level of blood glucose alone was determined at the time of measurement 3 hours after glucose load.

[2] = test system: Zucker fa/fa rats; conditions: 30 mg/kg p.o. twice daily for 14 days
Procedure: as §1, §2
Food intake and body weight were determined at 4:00 p.m after the 14-day administration series. Total food intake and weight gain over 14 days were determined for each experimental group.

[3] = test system: DPPIV-intact normal male Fisher rats; conditions: 30 mg/kg p.o.
Procedure: Animals: DPPIV-Intact Normal Male Fisher Rats (Purchased from CLEA Japan, Inc.)
Each test compound was suspended in a solution of 0.5% methyl cellulose at the doses indicated in Table 3, and then administered orally at a volume of 5 mL/kg. The vehicle control group was orally administered a solution of 0.5% methyl cellulose at a volume of 5 mL/kg.
An unanesthetized rat was lightly cut at the caudal vein with a razor blade and bled immediately before, and at 1, 3, and 5 hours after administration of a test compound or a solution of 0.5% methyl cellulose. 250 μL of blood was collected from the rat using a heparinized capillary and transferred into a centrifugation tube. The supernatant obtained by centrifugation (at 10000 g at 4° C. for 2 minutes) was assayed for GLP-1 level using Active GLP-1 ELISA kit (Linco).

[4] = test system: BALB/c AnCrj mice; conditions: 30 mg/kg p.o. twice a day, 5-FU treatment 60 mg/kg for 3 days, mice
Procedure: Animals: BALB/c AnCrj Mice (Purchased from Charles River Japan, Inc.)
5-FU (purchased from Sigma) was suspended in a solution of 0.5% methyl cellulose, and then administered orally at a volume of 10 mL/kg/day (8 a.m. to 9 a.m.) for 3 days (60 mg/kg). […] The vehicle control group was orally administered a solution of 0.5% methyl cellulose at a volume of 10 mL/kg.
Mice were fasted for 18 hours following the afternoon administration on the third day of the administration series. On the following day, the mice were killed by cervical dislocation, and then the whole small intestine was excised and the wet weight was measured.

CC(C)[C@H](N)C(=O)N1CCCC1 [Val-Pyr, valine pyrrolidide] was tested, and the “level of insulin during the glucose tolerance test” value [1] was “increased significantly”, the “Blood glucose level at each time point (hr) after oral glucose administration” value (shortened to “Blood glucose level at each time point”) ([1]; 0 hr) was 110.5 ± 3.3 mg/dL and the “GLP-1 concentration at each time point (hr) after oral glucose administration (% of Pre)” value ([1]; 0 hr) was 119.5 ± 3.6 % of Pre. For the same molecule, the “Insulin concentration at each time point (hr) after oral glucose administration” value (from here on “Insulin concentration at each time point”) ([1]; 0 hr) was 13.1 ± 1.2 ng/mL, the “Blood glucose level at each time point” value ([1]; 0.5 hr) was 166.0 ± 9.9 mg/dL and the “GLP-1 concentration at each time point (hr) after oral glucose administration (% of Pre)” value ([1]; 0.5 hr) was 217.6 ± 24.6 % of Pre. The “Insulin concentration at each time point” value ([1]; 0.5 hr) was 32.4 ± 3.2 ng/mL, the “Blood glucose level at each time point” value ([1]; 1 hr) was 167.1 ± 7.0 mg/dL and the “GLP-1 concentration at each time point (hr) after oral glucose administration (% of Pre)” value ([1]; 1 hr) was 197.5 ± 20.4 % of Pre. The “Insulin concentration at each time point” value ([1]; 1 hr) was 27.7 ± 5.0 ng/mL, the “Blood glucose level at each time point” value ([1]; 2 hr) was 139.3 ± 3.3 mg/dL and the “GLP-1 concentration at each time point (hr) after oral glucose administration (% of Pre)” value ([1]; 2 hr) was 128.3 ± 5.4 % of Pre. The “Insulin concentration at each time point” value ([1]; 2 hr) was 14.4 ± 2.6 ng/mL, the “Blood glucose level at each time point” value ([1]; 3 hr) was 115.1 ± 3.0 mg/dL and the “Blood glucose level at each time point” value ([1]; −0.5 hr) was 102.6 ± 3.0 mg/dL. For the same molecule, the “GLP-1 concentration at each time point (hr) after oral glucose administration (% of Pre)” value ([1]; −0.5 hr) was 100.0 ± 0.0 % of Pre, the “Insulin concentration at each time point” value ([1]; −0.5 hr) was 8.8 ± 1.1 ng/mL and the glucose tolerance ([1]; glucose tolerance test) was “improved”. For the same molecule, the “Total food intake for 14 days” value [2] was 491.8 ± 11.1 g, the “Weight gain for 14 days” value [2] was 60.9 ± 4.4 g and the “GLP-1 concentration at each time point (hr) after oral administration (% of Pre)” value ([3]; 0 hr) was 100 ± 0.0 % of Pre. The “GLP-1 concentration at each time point (hr) after oral administration (% of Pre)” value ([3]; 1 hr) was 127 ± 6 % of Pre, the “GLP-1 concentration at each time point (hr) after oral administration (% of Pre)” value ([3]; 3 hr) was 136 ± 20 % of Pre and the “GLP-1 concentration at each time point (hr) after oral administration (% of Pre)” value ([3]; 5 hr) was 91 ± 2 % of Pre. For the same molecule, the “Wet weight of small intestine” value [4] was 0.637 ± 0.015 g and the “Wet weight of small intestine (g)” value ([4]; listed as DPPIV inhibitor) was “no alteration”.

— patent US20060094722A1 (Eisai Co., Ltd., priority 2002, published 2006)
